Data on 3 compounds can be found in US6953808B2, “Method for treating gastric disorders using optically pure (−) pantoprazole” (Sepracor Inc., priority 1993, dated 2005).

Data set [1] addresses H^+,K^+-ATPase (Homo sapiens, UniProt P20648). The following applies: cited from earlier work.
Data set [2] has as its system beta-adrenergic. The following applies: cited from earlier work.
The test system of data set [3] is endogenous acid secretion. The data set is described as follows: Inhibition of endogenous acid secretion in pylorus-ligated rats. Format: in vivo, rat. The settings on record: ratio of doses for 50% reduction. An excerpt:
This may increase pantoprazole's selectivity for the acid secreting parietal cells, where low pH conditions exist in the intracellular canaliculi. In intact animals, pantoprazole is active in inhibiting gastric acid secretion in both rats and dogs. Specifically, the intravenous and oral doses required to reduce endogenous acid secretion in pylorus-ligated rats by 50% are in the 1-3 μmole/kg range. […] Racemic pantoprazole is also effective at doses less than 5 μmole/kg in inhibiting exogenously stimulated acid secretion induced by a variety of agonists, indicating general activity of the drug in inhibiting acid secretion.

The subject of data set [4] is mice. In words: Acute toxicity (LD50) in mice. Format: in vivo.
Data set [5] deals with duodenal ulcers. The following applies: patients with duodenal ulcers, after four weeks of 20 to 80 mg per day; cited from earlier work.
In data set [6] the test system is endogenous acid secretion. The settings on record: pylorus-ligated rats, cited from earlier work.
In data set [7] the test system is exogenously stimulated acid secretion. The following applies: secretion induced by a variety of agonists; cited from earlier work.
The conditions of data set [8]: neutral and moderately acidic conditions; compared with omeprazole; cited from earlier work.
The subject of data set [9] is hepatic drug metabolizing enzyme systems. The following applies: intact rats and rat microsomal enzyme preparations; compared to omeprazole; cited from earlier work.
Data set [10] relates to serum gastrin. The following applies: humans, short-term administration; cited from earlier work.
Data set [11] relates to rats. The settings on record: two year; cited from earlier work.
Data set [12] relates to rat. The following applies: cited from earlier work.
Data set [13] has as its system mice. The following applies: cited from earlier work.

H^+,K^+-ATPase, sequence (P20648 whole entry): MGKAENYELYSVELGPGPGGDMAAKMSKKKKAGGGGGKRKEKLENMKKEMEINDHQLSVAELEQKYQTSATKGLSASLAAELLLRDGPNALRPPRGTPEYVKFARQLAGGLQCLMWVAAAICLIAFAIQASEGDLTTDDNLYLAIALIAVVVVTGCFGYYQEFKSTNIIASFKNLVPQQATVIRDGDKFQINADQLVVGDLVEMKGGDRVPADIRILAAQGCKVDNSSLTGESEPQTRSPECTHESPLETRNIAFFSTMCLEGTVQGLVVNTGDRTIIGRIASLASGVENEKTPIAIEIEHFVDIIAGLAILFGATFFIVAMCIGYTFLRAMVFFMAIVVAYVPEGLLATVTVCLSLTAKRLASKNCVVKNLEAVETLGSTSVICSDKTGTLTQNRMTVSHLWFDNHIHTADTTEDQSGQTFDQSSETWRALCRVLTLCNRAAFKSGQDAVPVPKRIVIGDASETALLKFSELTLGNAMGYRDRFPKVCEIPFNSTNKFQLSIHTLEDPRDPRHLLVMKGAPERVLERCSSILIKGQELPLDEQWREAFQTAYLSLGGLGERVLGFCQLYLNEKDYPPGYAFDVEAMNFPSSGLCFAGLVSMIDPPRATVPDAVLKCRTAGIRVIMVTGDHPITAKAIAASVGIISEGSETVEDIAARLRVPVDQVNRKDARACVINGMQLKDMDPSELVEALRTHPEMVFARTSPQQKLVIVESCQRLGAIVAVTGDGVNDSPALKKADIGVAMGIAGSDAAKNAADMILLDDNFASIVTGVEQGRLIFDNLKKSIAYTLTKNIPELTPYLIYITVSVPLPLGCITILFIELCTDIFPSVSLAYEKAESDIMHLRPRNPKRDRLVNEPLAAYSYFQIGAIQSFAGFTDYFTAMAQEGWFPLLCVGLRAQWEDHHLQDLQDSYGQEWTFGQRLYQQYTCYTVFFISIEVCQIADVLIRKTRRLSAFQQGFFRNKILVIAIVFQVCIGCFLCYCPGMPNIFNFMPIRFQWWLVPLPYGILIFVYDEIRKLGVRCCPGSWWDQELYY
H^+,K^+-ATPase, sequence (P51164 whole entry partner): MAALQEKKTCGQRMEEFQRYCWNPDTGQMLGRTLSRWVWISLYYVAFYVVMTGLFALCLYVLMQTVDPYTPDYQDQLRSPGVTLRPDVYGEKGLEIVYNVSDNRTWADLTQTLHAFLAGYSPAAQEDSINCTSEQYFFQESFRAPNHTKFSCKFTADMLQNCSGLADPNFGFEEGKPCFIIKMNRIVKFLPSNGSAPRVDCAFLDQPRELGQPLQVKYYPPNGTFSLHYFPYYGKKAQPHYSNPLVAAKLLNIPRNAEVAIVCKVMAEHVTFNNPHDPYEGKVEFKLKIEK

With `COc1ccnc(C[S+]([O-])c2nc3cc(OC(F)F)ccc3[n-]2)c1OC.[Na+]` (racemic) [Racemic pantoprazole sodium], in data set [1], the “inhibition of H+,K+-ATPase” value was “potent, irreversible inhibitor”.

As for `CC(C)NC[C@H](O)COc1cccc2ccccc12` [L-form of propranolol, propranolol], in data set [2], the “potency relative to D-enantiomer” value is on record as 100 times.

Regarding `COc1ccnc(C[S+]([O-])c2nc3ccc(OC(F)F)cc3[nH]2)c1OC` (racemic) [racemic pantoprazole], the “calculated oral/intravenous (p.o./i.v.) ratio” value in data set [3] is reported as “approximately 2”. Also, the “p.o./i.v. LD50 ratio” value in data set [4] is “approximately 2”. Besides, in data set [5], the ulcer healing is recorded as 90-100%. In addition, the “intravenous dose required to reduce endogenous acid secretion by 50%” value in data set [6] (intravenous) is 1 to 3 µmol/kg. The “oral dose required to reduce endogenous acid secretion by 50%” value in data set [6] (oral) is 1 to 3 µmol/kg. In addition, in [7], the “effective dose inhibiting exogenously stimulated acid secretion” value is recorded as “less than 5 μmole/kg”. The chemical stability result in data set [8] is given as “more chemically stable”. Also, the “inhibition of hepatic drug metabolizing enzyme systems” value in [9] is reported as “weaker inhibitor”. Besides, the “fasting serum gastrin levels” value in data set [10] is on record as “significantly elevated”. For the same compound, the “finding in carcinogenicity study” value in [11] was “hepatocellular neoplasia”. Further, the “oral LD50” value in data set [12] (in vivo, po) was > 2,467 μmol/kg. Moreover, the “intravenous LD50” value is 632 µmol/kg in data set [12] (intravenous) and 975 µmol/kg in data set [13].
